Laboratory results reported in ChEMBL document CHEMBL4418912, “Methods of identifying antagonists of the hTAS2R46 bitter taste receptor” (2014).
Calls of active or inactive are those of the source. The calls are words filed in the database; no cut-off is given here.

Columns and labels:
Format in all cases: functional, cell-based
[1] = target: T1, Taste receptor type 2 member 4 (Homo sapiens) (UniProt Q9NYW5); assay: Agonist activity at recombinant human N-terminal rat ST3 receptor-fused TAS2R4 expressed in HEK293T cells co-expressing Galpha16gust44 assessed as increase in intracellular calcium level at 100 uM by FLIPR assay
T1 sequence (whole entry): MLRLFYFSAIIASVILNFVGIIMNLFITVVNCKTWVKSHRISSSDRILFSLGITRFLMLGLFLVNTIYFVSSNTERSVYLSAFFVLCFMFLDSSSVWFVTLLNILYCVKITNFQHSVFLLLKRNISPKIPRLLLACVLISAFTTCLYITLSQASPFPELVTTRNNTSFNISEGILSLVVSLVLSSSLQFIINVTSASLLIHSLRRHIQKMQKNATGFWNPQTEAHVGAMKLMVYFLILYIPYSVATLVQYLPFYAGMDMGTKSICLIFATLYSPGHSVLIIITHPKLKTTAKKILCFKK

[2] = target: T2, Taste receptor type 2 member 8 (Homo sapiens) (UniProt Q9NYW2); assay: Agonist activity at recombinant human N-terminal rat ST3 receptor-fused TAS2R8 expressed in HEK293T cells co-expressing Galpha16gust44 assessed as increase in intracellular calcium level at 100 uM by FLIPR assay
T2 sequence (whole entry): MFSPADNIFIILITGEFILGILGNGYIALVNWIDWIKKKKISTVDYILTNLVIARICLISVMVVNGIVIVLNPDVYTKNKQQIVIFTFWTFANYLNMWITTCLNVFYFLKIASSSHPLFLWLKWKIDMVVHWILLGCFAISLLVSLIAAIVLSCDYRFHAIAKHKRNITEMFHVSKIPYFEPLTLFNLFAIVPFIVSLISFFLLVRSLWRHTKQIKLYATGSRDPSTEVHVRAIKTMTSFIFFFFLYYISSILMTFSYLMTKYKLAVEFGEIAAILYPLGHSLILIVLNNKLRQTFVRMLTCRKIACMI

[3] = target: T3, Taste receptor type 2 member 3 (Homo sapiens) (UniProt Q9NYW6); assay: Agonist activity at recombinant human N-terminal rat ST3 receptor-fused TAS2R3 expressed in HEK293T cells co-expressing Galpha16gust44 assessed as increase in intracellular calcium level at 100 uM by FLIPR assay
T3 sequence (whole entry): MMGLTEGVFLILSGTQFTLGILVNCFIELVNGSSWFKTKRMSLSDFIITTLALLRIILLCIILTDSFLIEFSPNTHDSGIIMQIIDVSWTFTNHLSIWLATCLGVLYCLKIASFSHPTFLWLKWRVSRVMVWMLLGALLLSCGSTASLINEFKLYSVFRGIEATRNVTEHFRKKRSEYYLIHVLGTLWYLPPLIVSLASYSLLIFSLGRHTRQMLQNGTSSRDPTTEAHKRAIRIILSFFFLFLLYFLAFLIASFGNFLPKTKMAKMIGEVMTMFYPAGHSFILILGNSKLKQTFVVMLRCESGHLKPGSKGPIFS

[4] = target: T4, Taste receptor type 2 member 13 (Homo sapiens) (UniProt Q9NYV9); assay: Agonist activity at recombinant human N-terminal rat ST3 receptor-fused TAS2R13 expressed in HEK293T cells co-expressing Galpha16gust44 assessed as increase in intracellular calcium level at 100 uM by FLIPR assay
T4 sequence (whole entry): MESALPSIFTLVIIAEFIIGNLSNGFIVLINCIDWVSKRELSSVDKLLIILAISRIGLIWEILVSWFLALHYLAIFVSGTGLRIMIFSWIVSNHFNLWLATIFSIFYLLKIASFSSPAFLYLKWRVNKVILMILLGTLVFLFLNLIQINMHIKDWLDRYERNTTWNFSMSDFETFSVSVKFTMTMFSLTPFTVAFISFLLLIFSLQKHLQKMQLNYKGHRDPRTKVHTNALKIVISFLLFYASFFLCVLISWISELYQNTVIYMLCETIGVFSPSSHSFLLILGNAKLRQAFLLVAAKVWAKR

[5] = target: Taste receptor type 2 member 40 (Homo sapiens) (UniProt P59535); assay: Agonist activity at recombinant human N-terminal rat ST3 receptor-fused TAS2R40 expressed in HEK293T cells co-expressing Galpha16gust44 assessed as increase in intracellular calcium level at 100 uM by FLIPR assay
Taste receptor type 2 member 40 (Homo sapiens), sequence (P59535 whole entry, the tested form may be a part): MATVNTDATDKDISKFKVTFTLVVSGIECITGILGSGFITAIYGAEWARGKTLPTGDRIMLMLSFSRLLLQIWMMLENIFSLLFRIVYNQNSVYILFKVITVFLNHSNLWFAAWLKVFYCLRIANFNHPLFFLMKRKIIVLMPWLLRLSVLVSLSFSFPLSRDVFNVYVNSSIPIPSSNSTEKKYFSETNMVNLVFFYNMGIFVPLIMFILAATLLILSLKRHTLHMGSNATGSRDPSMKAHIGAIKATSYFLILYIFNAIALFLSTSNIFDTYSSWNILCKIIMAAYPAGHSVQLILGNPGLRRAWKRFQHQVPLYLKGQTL

[6] = target: Taste receptor type 2 member 41 (Homo sapiens) (UniProt P59536); assay: Agonist activity at recombinant human N-terminal rat ST3 receptor-fused TAS2R41 expressed in HEK293T cells co-expressing Galpha16gust44 assessed as increase in intracellular calcium level at 100 uM by FLIPR assay
Taste receptor type 2 member 41 (Homo sapiens), sequence (P59536 whole entry, the tested form may be a part): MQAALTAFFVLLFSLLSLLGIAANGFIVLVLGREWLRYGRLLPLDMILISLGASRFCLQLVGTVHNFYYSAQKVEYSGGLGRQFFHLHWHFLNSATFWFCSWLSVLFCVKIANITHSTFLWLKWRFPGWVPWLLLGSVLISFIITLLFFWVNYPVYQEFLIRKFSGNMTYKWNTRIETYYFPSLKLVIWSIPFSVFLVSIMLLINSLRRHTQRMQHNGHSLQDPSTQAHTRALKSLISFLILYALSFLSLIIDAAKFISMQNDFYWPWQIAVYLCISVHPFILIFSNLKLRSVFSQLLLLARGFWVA

[7] = target: Taste receptor type 2 member 42 (Homo sapiens) (UniProt Q7RTR8); assay: Agonist activity at recombinant human N-terminal rat ST3 receptor-fused TAS2R42 expressed in HEK293T cells co-expressing Galpha16gust44 assessed as increase in intracellular calcium level at 100 uM by FLIPR assay
Taste receptor type 2 member 42 (Homo sapiens), sequence (Q7RTR8 whole entry, the tested form may be a part): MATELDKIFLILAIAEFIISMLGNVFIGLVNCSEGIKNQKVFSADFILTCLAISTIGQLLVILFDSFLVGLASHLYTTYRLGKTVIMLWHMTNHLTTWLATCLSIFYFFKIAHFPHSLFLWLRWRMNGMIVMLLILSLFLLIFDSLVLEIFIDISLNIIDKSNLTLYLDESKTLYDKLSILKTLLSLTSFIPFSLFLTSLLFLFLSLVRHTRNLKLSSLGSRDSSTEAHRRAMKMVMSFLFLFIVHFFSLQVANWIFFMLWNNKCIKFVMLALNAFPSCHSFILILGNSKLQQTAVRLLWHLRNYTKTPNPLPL

[8] = target: T5, Taste receptor type 2 member 5 (Homo sapiens) (UniProt Q9NYW4); assay: Potentiation of denatonium saccharide-induced agonist activity at recombinant human N-terminal rat ST3 receptor-fused TAS2R5 expressed in HEK293T cells co-expressing Galpha16gust44 assessed as increase in intracellular calcium level at 100 uM by FLIPR assay
T5 sequence (whole entry): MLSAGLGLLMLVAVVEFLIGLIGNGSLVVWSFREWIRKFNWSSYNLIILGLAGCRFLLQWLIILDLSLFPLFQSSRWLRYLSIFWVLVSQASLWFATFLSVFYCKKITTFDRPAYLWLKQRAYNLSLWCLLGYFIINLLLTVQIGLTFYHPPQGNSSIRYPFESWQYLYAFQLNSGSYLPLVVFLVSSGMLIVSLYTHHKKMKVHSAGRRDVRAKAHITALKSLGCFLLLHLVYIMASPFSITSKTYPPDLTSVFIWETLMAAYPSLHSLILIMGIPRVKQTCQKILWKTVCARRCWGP

[9] = target: T6, Taste receptor type 2 member 10 (Homo sapiens) (UniProt Q9NYW0); assay: Competitive-antagonist activity at recombinant human N-terminal rat ST3 receptor-fused TAS2R10 expressed in HEK293T cells co-expressing Galpha16gust44 assessed as inhibition of strychnine-induced increase in intracellular calcium level by measuring maximum signal amplitude at 100 uM by FLIPR assay (reference value: 0.42 +/- 0.09 a.u.)
T6 sequence (whole entry): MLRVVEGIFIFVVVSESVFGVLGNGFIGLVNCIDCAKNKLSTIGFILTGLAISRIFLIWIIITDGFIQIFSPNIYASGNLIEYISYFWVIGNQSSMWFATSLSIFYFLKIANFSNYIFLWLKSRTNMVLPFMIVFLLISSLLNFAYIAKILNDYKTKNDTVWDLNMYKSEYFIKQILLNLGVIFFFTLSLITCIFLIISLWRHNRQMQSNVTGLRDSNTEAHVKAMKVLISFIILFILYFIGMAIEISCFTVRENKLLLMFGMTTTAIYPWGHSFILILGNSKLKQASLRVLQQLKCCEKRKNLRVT

## C/C1=C\C[C@H](O)/C(C)=C/[C@H]2OC(=O)[C@@H](C)[C@@H]2CC1
[1]
  Activity: Active
[2]
  Activity: Active
[3]
  Activity: inactive
[4]
  Activity: inactive
[5]
  Activity: inactive
[6]
  Activity: inactive
[7]
  Activity: inactive
[8]
  Activity: Active
[9]
  Activity: 0.34 a.u.
